Results: patent US8680139B2 (Progenra, priority 2009, dated 2014)

Target: T1, USP7 (Homo sapiens, UniProt Q93009)
T1 construct: full length human USP7 protein; made in house
Assay: USP7, Ub-PLA2 assay
Assay type: biochemical
Details: Ub-PLA2 / NBD C6-HPC fluorescence, 30 minute preincubation; read-out: EC50 for inhibition of USP7
Procedure, shortened: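 Activity read as fluorescence in a Ub-PLA2 format, with percent inhibition calculated within each plate against DMSO (uninhibited) and NEM (background) wells. Vehicle was 100% DMSO.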

T1 sequence (Q93009 whole entry): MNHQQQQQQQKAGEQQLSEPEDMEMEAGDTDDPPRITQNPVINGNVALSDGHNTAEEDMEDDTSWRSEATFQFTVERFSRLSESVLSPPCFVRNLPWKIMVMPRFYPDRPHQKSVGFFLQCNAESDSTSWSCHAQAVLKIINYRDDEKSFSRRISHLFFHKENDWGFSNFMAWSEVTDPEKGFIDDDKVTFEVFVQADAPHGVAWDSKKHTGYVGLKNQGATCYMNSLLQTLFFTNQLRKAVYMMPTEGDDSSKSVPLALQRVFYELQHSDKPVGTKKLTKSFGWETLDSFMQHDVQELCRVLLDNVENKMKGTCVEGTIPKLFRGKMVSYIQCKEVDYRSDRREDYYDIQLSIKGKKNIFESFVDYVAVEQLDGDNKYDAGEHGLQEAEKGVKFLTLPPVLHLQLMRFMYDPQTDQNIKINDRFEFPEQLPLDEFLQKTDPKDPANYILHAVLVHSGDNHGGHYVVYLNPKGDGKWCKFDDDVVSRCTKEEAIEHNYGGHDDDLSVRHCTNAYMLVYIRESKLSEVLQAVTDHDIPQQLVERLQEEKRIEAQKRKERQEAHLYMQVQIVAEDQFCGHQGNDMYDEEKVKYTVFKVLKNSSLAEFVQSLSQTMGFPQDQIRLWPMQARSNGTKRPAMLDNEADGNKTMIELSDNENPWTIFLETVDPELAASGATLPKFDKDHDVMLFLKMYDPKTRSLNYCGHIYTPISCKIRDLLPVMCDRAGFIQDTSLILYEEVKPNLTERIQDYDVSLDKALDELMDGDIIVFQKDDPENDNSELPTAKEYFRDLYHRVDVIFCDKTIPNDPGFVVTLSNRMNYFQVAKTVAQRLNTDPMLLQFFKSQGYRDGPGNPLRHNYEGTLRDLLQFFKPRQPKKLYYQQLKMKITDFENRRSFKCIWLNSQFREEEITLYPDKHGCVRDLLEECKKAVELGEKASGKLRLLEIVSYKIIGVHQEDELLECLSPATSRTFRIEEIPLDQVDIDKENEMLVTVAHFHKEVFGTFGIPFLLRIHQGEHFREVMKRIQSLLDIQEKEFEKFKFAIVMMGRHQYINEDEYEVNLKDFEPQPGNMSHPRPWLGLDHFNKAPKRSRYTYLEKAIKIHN

Row | SMILES | EC50 [nM]
1 | O=C(NCCc1cccnc1)c1cc([N+](=O)[O-])c(Sc2c(Cl)cncc2Cl)s1 [Example 108, 5-((3,5-dichloropyridin-4-yl)thio)-4-nitro-N-(2-(pyridin-3-yl)ethyl)thiophene-2-carboxamide] | ≤ 1000
2 | O=C(Nc1cc(-c2ccccc2)n[nH]1)c1cc([N+](=O)[O-])c(Sc2c(Cl)cncc2Cl)s1 [Example 71, 5-((3,5-dichloropyridin-4-yl)thio)-4-nitro-N-(3-phenyl-1H-pyrazol-5-yl)thiophene-2-carboxamide] | 1000 to 10000
3 | O=C(NCc1ccc2c(c1)OCCO2)c1cc([N+](=O)[O-])c(Sc2c(Cl)cncc2Cl)s1 [Example 147, 5-((3,5-dichloropyridin-4-yl)thio)-N-((2,3-dihydrobenzo[b][1,4]dioxin-6-yl)methyl)-4-nitrothiophene-2-carboxamide] | ≤ 1000
4 | O=C(NCc1ccco1)c1cc([N+](=O)[O-])c(Sc2c(Cl)cncc2Cl)s1 [Example 52, 5-((3,5-dichloropyridin-4-yl)thio)-N-(furan-2-ylmethyl)-4-nitrothiophene-2-carboxamide] | 1000 to 10000
5 | O=C(NCCc1ccccc1F)c1cc([N+](=O)[O-])c(Sc2c(Cl)cncc2Cl)s1 [Example 111, 5-((3,5-dichloropyridin-4-yl)thio)-N-(2-fluorophenethyl)-4-nitrothiophene-2-carboxamide] | ≤ 1000
6 | O=C(NCc1cccc(C(F)(F)F)c1)c1cc([N+](=O)[O-])c(Sc2c(Cl)cncc2Cl)s1 [Example 148, 5-((3,5-dichloropyridin-4-yl)thio)-4-nitro-N-(3-(trifluoromethyl)benzyl)thiophene-2-carboxamide] | ≤ 1000
7 | O=C(Nc1c(Cl)cccc1Cl)c1cc([N+](=O)[O-])c(Sc2c(Cl)cncc2Cl)s1 [Example 135, N-(2,6-dichlorophenyl)-5-((3,5-dichloropyridin-4-yl)thio)-4-nitrothiophene-2-carboxamide] | ≤ 1000
8 | CNC(C)c1cc([N+](=O)[O-])c(Sc2ccc(Cl)cc2Cl)s1 (stereo not drawn) [Example 28, 1-[5-(2,4-dichlorophenyl)sulfanyl-4-nitro-2-thienyl]-N-methyl-ethanamine] | > 10000
9 | CS(=O)(=O)c1cccc(CNC(=O)c2cc([N+](=O)[O-])c(Sc3c(Cl)cncc3Cl)s2)c1 [Example 125, 5-((3,5-dichloropyridin-4-yl)thio)-N-(3-(methylsulfonyl)benzyl)-4-nitrothiophene-2-carboxamide] | ≤ 1000
10 | O=C(NCCC1CCN(Cc2ccccc2)C1)c1cc([N+](=O)[O-])c(Sc2c(Cl)cncc2Cl)s1 (stereo not drawn) [Example 84, N-(2-(1-benzylpyrrolidin-3-yl)ethyl)-5-((3,5-dichloropyridin-4-yl)thio)-4-nitrothiophene-2-carboxamide] | > 10000
11 | CC1(C)CCN(C(=O)c2cc([N+](=O)[O-])c(Sc3c(Cl)cncc3Cl)s2)CC1 [Example 80, (5-((3,5-dichloropyridin-4-yl)thio)-4-nitrothiophen-2-yl)(4,4-dimethylpiperidin-1-yl)methanone] | 1000 to 10000
12 | CN1CCN(c2ccc(NC(=O)c3cc([N+](=O)[O-])c(Sc4c(Cl)cncc4Cl)s3)cc2)CC1 [Example 79, 5-((3,5-dichloropyridin-4-yl)thio)-N-(4-(4-methylpiperazin-1-yl)phenyl)-4-nitrothiophene-2-carboxamide] | 1000 to 10000
13 | O=C(c1cc([N+](=O)[O-])c(Sc2c(Cl)cncc2Cl)s1)N1CCC(F)CC1 [Example 74, (5-((3,5-dichloropyridin-4-yl)thio)-4-nitrothiophen-2-yl)(4-fluoropiperidin-1-yl)methanone] | 1000 to 10000
14 | O=C(NCc1cccnc1)c1cc([N+](=O)[O-])c(Sc2c(Cl)cncc2Cl)s1 [Example 101, 5-((3,5-dichloropyridin-4-yl)thio)-4-nitro-N-(pyridin-3-ylmethyl)thiophene-2-carboxamide] | ≤ 1000
15 | CSc1cccc(CN(C)C(=O)c2cc([N+](=O)[O-])c(Sc3c(Cl)cncc3Cl)s2)c1 [Example 127, 5-((3,5-dichloropyridin-4-yl)thio)-N-methyl-N-(3-(methylthio)benzyl)-4-nitrothiophene-2-carboxamide] | ≤ 1000
16 | CN1CCN(C(=O)c2cc([N+](=O)[O-])c(Sc3c(Cl)cncc3Cl)s2)CC1 [Example 66, (5-((3,5-dichloropyridin-4-yl)thio)-4-nitrothiophen-2-yl)(4-methylpiperazin-1-yl)methanone] | 1000 to 10000
17 | CC(=O)c1cc([N+](=O)[O-])c(Sc2cc(C(F)(F)F)cc(C(F)(F)F)c2)s1 [Example 40, 1-[5-[3,5-bis(trifluoromethyl)phenyl]sulfanyl-4-nitro-2-thienyl]ethanone] | 1000 to 10000
18 | O=C(c1cccc([N+](=O)[O-])c1)c1cc([N+](=O)[O-])c(Sc2ccc(Cl)cc2Cl)s1 [Example 31, [5-(2,4-dichlorophenyl)sulfanyl-4-nitro-2-thienyl]-(3-nitrophenyl)methanone] | > 10000
19 | CN1C2CCC1CC(NC(=O)c1cc([N+](=O)[O-])c(Sc3c(Cl)cncc3Cl)s1)C2 (stereo not drawn) [Example 184, 5-((3,5-dichloropyridin-4-yl)thio)-N-(8-methyl-8-azabicyclo[3.2.1]octan-3-yl)-4-nitrothiophene-2-carboxamide] | ≤ 1000
20 | O=C(NCc1ccc(F)cc1)c1cc([N+](=O)[O-])c(Sc2c(Cl)cncc2Cl)s1 [Example 107, 5-((3,5-dichloropyridin-4-yl)thio)-N-(4-fluorobenzyl)-4-nitrothiophene-2-carboxamide] | ≤ 1000
21 | O=C(NCCc1cccs1)c1cc([N+](=O)[O-])c(Sc2c(Cl)cncc2Cl)s1 [Example 55, 5-((3,5-dichloropyridin-4-yl)thio)-4-nitro-N-(2-(thiophen-2-yl)ethyl)thiophene-2-carboxamide] | 1000 to 10000
22 | COc1ccc(NC(=O)c2cc([N+](=O)[O-])c(Sc3c(Cl)cncc3Cl)s2)c(C)c1 [Example 132, 5-((3,5-dichloropyridin-4-yl)thio)-N-(4-methoxy-2-methylphenyl)-4-nitrothiophene-2-carboxamide] | ≤ 1000
23 | CCN1C[C@H](NC(=O)c2cc([N+](=O)[O-])c(Sc3c(Cl)cncc3Cl)s2)[C@@H](OC)C1 [Example 92, 5-((3,5-dichloropyridin-4-yl)thio)-N-((3S,4S)-1-ethyl-4-methoxypyrrolidin-3-yl)-4-nitrothiophene-2-carboxamide] | 1000 to 10000

Further lines, results first:

Row | EC50 [nM] | SMILES
24 | ≤ 1000 | COc1cccc(NC(=O)c2cc([N+](=O)[O-])c(Sc3c(Cl)cncc3Cl)s2)c1 [Example 156, 5-((3,5-dichloropyridin-4-yl)thio)-N-(3-methoxyphenyl)-4-nitrothiophene-2-carboxamide]
25 | ≤ 1000 | O=C(Nc1ccc(O)cc1)c1cc([N+](=O)[O-])c(Sc2c(Cl)cncc2Cl)s1 [Example 181, 5-((3,5-dichloropyridin-4-yl)thio)-N-(4-hydroxyphenyl)-4-nitrothiophene-2-carboxamide]
26 | 1000 to 10000 | O=C(O)CNC(=O)c1cc([N+](=O)[O-])c(Sc2c(Cl)cncc2Cl)s1 [Example 210, 2-(5-((3,5-dichloropyridin-4-yl)thio)-4-nitrothiophene-2-carboxamido)acetic acid]
27 | ≤ 1000 | CC1(C)CC(NC(=O)c2cc([N+](=O)[O-])c(Sc3c(Cl)cncc3Cl)s2)CC(C)(C)N1 [Example 178, 5-((3,5-dichloropyridin-4-yl)thio)-4-nitro-N-(2,2,6,6-tetramethylpiperidin-4-yl)thiophene-2-carboxamide]
28 | ≤ 1000 | CS(=O)(=O)c1ccc(NC(=O)c2cc(C#N)c(Sc3c(Cl)cncc3Cl)s2)cc1 [Example 208, 4-cyano-5-((3,5-dichloropyridin-4-yl)thio)-N-(4-(methylsulfonyl)phenyl)thiophene-2-carboxamide]
29 | 1000 to 10000 | CC(=O)N1CCC(NC(=O)c2cc([N+](=O)[O-])c(Sc3c(Cl)cncc3Cl)s2)CC1 [Example 232, N-(1-acetylpiperidin-4-yl)-5-((3,5-dichloropyridin-4-yl)thio)-4-nitrothiophene-2-carboxamide]
30 | 1000 to 10000 | O=C(NC1CCN(C2CC2)CC1)c1cc([N+](=O)[O-])c(Sc2c(Cl)cncc2Cl)s1 [Example 231, N-(1-cyclopropylpiperidin-4-yl)-5-((3,5-dichloropyridin-4-yl)thio)-4-nitrothiophene-2-carboxamide]
31 | ≤ 1000 | O=C(NC12CC3CC(CC(O)(C3)C1)C2)c1cc([N+](=O)[O-])c(Sc2c(Cl)cncc2Cl)s1 [Example 176, 5-((3,5-dichloropyridin-4-yl)thio)-N-((1r,3s,5R,7S)-3-hydroxyadamantan-1-yl)-4-nitrothiophene-2-carboxamide]
32 | 1000 to 10000 | CN1CCC(NC(=O)c2cc([N+](=O)[O-])c(Sc3c(F)cncc3F)s2)CC1 [Example 256, 5-((3,5-difluoropyridin-4-yl)thio)-N-(1-methylpiperidin-4-yl)-4-nitrothiophene-2-carboxamide]
33 | 1000 to 10000 | O=C(NCCCN1CCC(F)CC1)c1cc([N+](=O)[O-])c(Sc2c(Cl)cncc2Cl)s1 [Example 228, 5-((3,5-dichloropyridin-4-yl)thio)-N-(3-(4-fluoropiperidin-1-yl)propyl)-4-nitrothiophene-2-carboxamide]
34 | ≤ 1000 | CS(=O)(=O)N1CCC(NC(=O)c2cc([N+](=O)[O-])c(Sc3c(Cl)cncc3Cl)s2)CC1 [Example 233, 5-((3,5-dichloropyridin-4-yl)thio)-N-(1-(methylsulfonyl)piperidin-4-yl)-4-nitrothiophene-2-carboxamide]
35 | ≤ 1000 | CC(C)(C)NC(=O)c1cc([N+](=O)[O-])c(Sc2c(Cl)cncc2Cl)s1 [Example 153, N-(tert-butyl)-5-((3,5-dichloropyridin-4-yl)thio)-4-nitrothiophene-2-carboxamide]
36 | > 10000 | CC(C)N1CCC(NC(=O)c2cc([N+](=O)[O-])c(Oc3c(Cl)cncc3Cl)s2)CC1 [Example 260, 5-((3,5-dichloropyridin-4-yl)oxy)-N-(1-isopropylpiperidin-4-yl)-4-nitrothiophene-2-carboxamide]
